Measured values taken from PubChem BioAssay (NCI).
Several values for one entry are separate records, joined by “and”; a condition that tells them apart may be missing. Equal values may be shown once.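 Interpolation was linear, between the two tested concentrations surrounding the appropriate level; five concentrations were tested over 48 hours in 96-well plates. GI50 marks 50% less growth. TGI: concentration producing complete growth inhibition.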

Tested on: MDA-MB-468 breast
Assay: DTP human tumour cell line panel, 48 h

| SMILES | GI50 | TGI |
| --- | --- | --- |
| C/C(=C\c1ccc2ccccc2c1)[N+](=O)[O-] | 1560 nM | 3060 nM |
| O=C1OCC2=C1C(c1ccc(Cl)c(Cl)c1)c1cc3c(cc1N2CCO)OCCO3 (stereo not drawn) | 95 nM | 394 nM |
| CN[C@@H](C)C(=O)N[C@H](C(=O)N1CCC[C@H]1C(=O)Nc1sc(-c2ncco2)nc1-c1ccccc1)C1CCCCC1 | 11400 nM | 35700 nM |
| O=C1OCC2=C1C(c1ccccc1)c1cc3c(cc1N2)OCO3 (stereo not drawn) | 27 nM | 600 nM |
| N#Cc1c(N2CCOCC2)nc(=S)[nH]c1-c1ccco1 | 3510 nM | > 100000 nM |
| C#Cc1nc(/C=C/CCCCCCC(=O)NO)cs1 | 2130 nM | 8650 nM |
| C1CCC([PH+](C2CCCCC2)C2CCCCC2[PH+](C2CCCCC2)C2CCCCC2)CC1.[Au].[CH-]1CCCCC1CC1CCCC[N-]1 (stereo not drawn) | 161 nM | 631 nM |
| CCCCCCCCCCCCCCCCCC1=NCCN1CCOC1=C(Cl)C(=O)c2ccccc2C1=O | 1640 nM | 3270 nM |
| CC(C)NCCCn1c(Sc2cc3c(cc2I)OCO3)nc2c(N)ncnc21 | 82.7 nM | 3620 nM |
| COc1ccc(-c2[nH]c3ccccc3c2-c2ccc(OC)cc2)cc1 | 2430 nM | 7180 nM |
| O=C1c2c(c3c4ccccc4[nH]c3c3ccc4ccccc4c23)C(=O)N1CCN1CCNCC1 | 1650 nM | 3300 nM |
| CN1CCN(C(=O)c2cc(-c3ccc4ncnc(N5CCc6cc(F)c(Cl)cc65)c4c3)cnc2N)CC1 | 120 nM | 365 nM |
| OCc1ccc(N2CCCC2c2ccccc2)cc1Cl (stereo not drawn) | 117 nM | 448 nM |
| COc1ccc2c(c1)N(CCO)C1=C(C(=O)OC1)C2c1cccc(F)c1 (stereo not drawn) | 202 nM | – |
| CCOc1ccccc1C(=O)N1CCN(c2cc(Cl)cc(Cl)c2)CC1 | 29.2 nM | 2870 nM |
| CC(C)=CCc1c(O)c(CC=C(C)C)c2c(c1O)C(=O)C1=C[C@@H]3C[C@H]4C(C)(C)O[C@@](C/C=C(\C)C(=O)O)(C3=O)[C@@]14O2 | 24100 nM | 48600 nM |
| O=C(/C=C/c1cc2ccccc2[nH]c1=O)/C=C/c1cc2ccccc2[nH]c1=O | 7330 nM | 15500 nM |
| C=CC(=O)Nc1cccc(Oc2nc(Nc3ccc(N4CCN(C)CC4)cc3)nc3ccsc23)c1 | 267 nM and 570 nM | 1750 nM and 3360 nM |
| CN=c1ccc2nc3ccc(N)cc3sc-2c1 | 2900 nM | 17100 nM |
| CC(C)C[C@H](NC(=O)CNC(=O)c1cc(Cl)ccc1Cl)B1OC(=O)CC(CC(=O)O)(C(=O)O)O1 (stereo partly drawn) | 17 nM | 38.5 nM |
| CN1CCN(Cc2ccc(NC(=O)c3cncc(C#Cc4cnc(N)nc4)c3)cc2C(F)(F)F)CC1 | 684 nM | 7660 nM |
| CNCCCNCCCCNCCCN1C(=O)c2ccc3c4c(ccc(c24)C1=O)C(=O)N(CCCNCc1ccccc1OC)C3=O | 1890 nM | 11700 nM |
| CC1=C2[C@@H](CC1)[C@]1(C)O[C@@](c3ccccc3)(C[C@H]1OC(=O)CO)[C@H]2OC(=O)/C=C/c1ccccc1 | 17900 nM | 46000 nM |

| SMILES | GI50 | TGI |
| --- | --- | --- |
| CCc1ccc2c(c1)N(CCO)C1=C(C(=O)OC1)C2c1cccc(Br)c1 (stereo not drawn) | 164 nM | 660 nM |
| CN1C(=O)N(C)C2C1NN=c1s/c(=C\c3ccc(C(F)(F)F)cc3)c(=O)n12 (stereo not drawn) | 510 nM | 26200 nM |
| O=C1c2cccnc2C(=O)c2c1c(C(=O)NCCCN1CCCCC1)c1ccccn21 | 531 nM | 1890 nM |
| CCCN(CCS(C)(=O)=O)Cc1ccc(-c2ccc3ncnc(Nc4ccc(OCc5cccc(F)c5)c(Cl)c4)c3c2)o1 | 75.2 nM | 877 nM |
| O=S(=O)(c1ccc(Cl)cc1)C(Cl)(Cl)Cl | 1440 nM | 5500 nM |
| O=C1/C(=C/c2ccccc2[N+](=O)[O-])Cc2ccccc21 | 1380 nM | 3030 nM |
| COc1cc2c(cc1OCCCn1c(-c3ccccn3)nc3ccccc31)N=C[C@@H]1CCCN1C2=O | 1940 nM | 5640 nM |
| O=S(=O)(Nc1cc(Sc2cccc3cccnc23)c(O)c2ccccc12)c1ccc(F)cc1 | 1800 nM | 4080 nM |
| Cc1ccc(/C=N\NC(=O)c2[nH]c3ccc(F)cc3c2-c2ccccc2)cc1 | 24 nM | 67.4 nM |
| O=C(Nc1ccc(OCc2nnc(-c3ccc(Cl)cc3)o2)c(F)c1)Nc1ccc(Cl)c(C(F)(F)F)c1 | 1800 nM | 7370 nM |
| O=C(/C=C\c1cccc([N+](=O)[O-])c1)/C=C/c1cccc([N+](=O)[O-])c1 | 3430 nM | 55500 nM |
| Nc1nc(OCc2ccccc2)c2[nH]cnc2n1 | 28100 nM and 34900 nM | 207000 nM |
| CN(C)CCCn1c(=O)c2ccccc2c2ccccc21 | 6180 nM | 20100 nM |
| CCCCCCCCCCCCCCCCCC[n+]1ccc2c(C)c3c(c(C)c2c1)c1cc(O)ccc1n3CC | 628 nM | 4110 nM |
| COc1ccc2cc1Oc1ccc(cc1)C[C@H]1c3c(cc4c(c3Oc3cc5c(cc3OC)CCN(C)[C@@H]5C2)OCO4)CCN1C | 593 nM | 2310 nM |
| FC(F)(F)c1ccc(-c2cnc(-c3ncon3)nc2NC2CCCCCC2)cc1 | 48500 nM | > 100000 nM |
| OCC1OC(n2cnc3c(N/N=C\c4ccccn4)ncnc32)C(O)C1O (stereo not drawn) | 187 nM | 508 nM |
| c1cnn2ncc(-c3ccnc(NCCCN4CCOCC4)n3)c2c1 | 3450 nM | 10000 nM |
| O=C1CCC(N2Cc3cc(CNC(=O)C(F)(F)c4ccc(Cl)cc4)ccc3C2=O)C(=O)N1 (stereo not drawn) | 48.1 nM | – |
| COc1ccc(-c2nc(Nc3cc(C)[nH]n3)c3ccccc3n2)cc1 | 3120 nM | > 53400 nM |
| CO[C@H]1CC(O[C@@H]2/C(C)=C/C[C@@H]3C[C@@H](C[C@]4(C=C[C@H](C)[C@@H](C5CCCCC5)O4)O3)OC(=O)[C@@H]3C=C(C)[C@@H](O)[C@H]4OC/C(=C\C=C\[C@@H]2C)[C@]43O)O[C@@H](C)C1O[C@H]1C[C@H](OC)[C@@H](O)[C@H](C)O1 (stereo partly drawn) | 1400 nM | 3010 nM |
| C[C@@H]1CN(Cc2ccc(F)cc2)[C@@H](C)CN1C(=O)c1cc2c(C(=O)C(=O)N(C)C)cn(C)c2cc1Cl | 13300 nM | 45000 nM |
